Measurements from patent publication US7683061B2, “Triazine dimers for the treatment of autoimmune diseases” (ProMetic BioSciences Inc., priority 2003, dated 2010).

Experiments:
MRL/lpr mice = experiment: SLE-like syndrome in MRL/lpr mice; format: in vivo; details: control group 10%
Source text: FIG. 5 is an example of the effect of compounds on survival of MRL/lpr mice. These mice also spontaneously develop SLE-like syndrome. MRL/lpr have a homozygous fas mutation, which accelerates autoimmunity. […] Furthermore, compounds 1 and 20 increase the survival (40%) compared to the control group (10%).

[1] = biological target: TNFα / p55 TNFα receptor (CD120a) (Homo sapiens, UniProt P01375); experiment: Binding ELISA: sTNF-R1 binding to plastic coated TNF-α
Description: Compounds were tested for their ability to bind to TNFα or inhibit the interaction of TNFα with its respective receptors; p55 and p75 TNFα receptor. Three binding ELISA assays were undertaken as described by Mancini et al. Biochemical Pharmacology 58, 851-859 (1999). TNFα or receptor (1 μg/mL) was coated on a 96-well plate Maxisorp, overnight at 4° C. After incubation, unbound TNFα or p55 TNFα receptor or p75 TNFα receptor was removed and the plate washed three times with PBS. The plate was then incubated with 100 μL/well of a 2% BSA solution for 1 h at 37° C. to block non specific protein binding. After incubation, the plate was washed three times with PBS. Biotinylated recombinant human TNFα p55 or p75 receptor or biotinylated recombinant human TNFα was added to the wells in the presence or absence of compounds. The plate was incubated for 1 h at 37° C. After incubation, the plate was washed three times with PBS to remove unbound labeled p55 or p75 receptor or recombinant human TNFα. 100 μL of avidin-HRP (diluted 1/2000 in PBS-0.1% BSA) was added to each well and incubated 1 h at 37° C. Bound p55 or p75 receptor or recombinant human TNFα was detected by the addition of 200 μL of 3,3′,5,5′-tetramethylbenzidine (TMB) per well for 15 min. The plate was then read at 655 nm on a EL 800 universal Microplate reader (Bio-Tek, Mississauga, Canada). Data was analyzed in Microsoft Excel and recorded as the percentage of inhibition of p55 or p75 binding to TNFα or TNFα binding to RI (p55) or RII (p75).

[2] = system: female Lewis rats, collagen-induced arthritis; experiment: Collagen-induced arthritis (CIA); format: in vivo; details: intravenous; from day 16 to day 21
Description: Collagen-induced arthritis (CIA) was induced in female Lewis rats by intradermal administration of heterologous (bovine) type II collagen (250 μg) solubilized in 0.1 M acetic acid and emulsified in Complete Freund's Adjuvant (CFA). Rats were treated with the vehicle or methotrexate or compound 1 by intravenous injections at day 8, 9, 12, 14 and 16. Synovitis typically develops 12-15 days postimmunization in 80-90% of the animals. Once arthritis appears, each paw was examined two to three times a week. Both the incidence and severity of the arthritis was evaluated. Incidence is defined as the number of rats with clinical evidence of joint inflammation during the study period while severity was quantified by scoring daily each paw integer on a scale of 0 to 4 (0=normal, 4=maximum; Table 7) based on increasing levels of swelling, periarticular erythema and stiffness. The sum of the scores for all four paws was calculated as the arthritic index with a maximum possible score of 16 per rat. Since CIA primarily affects hind limbs, scores of 6-8 represent severe arthritis.

RAW 264.7 cells = experiment: Phagocytosis of FITC-immune complexes by RAW 264.7 cells; format: cell-based
Description: This assay was performed to determine the ability of protein A mimic compounds to stimulate or inhibit uptake of FITC-Immune Complex (IC). FITC-IC was prepared by mixing human serum albumin (HSA)-fluorescein isothiocyanate (FITC) with mouse IgG anti-HSA at a 1:4 ratio (four molecules of antibody for one molecule of antigen) on a rotary shaker for 1 h at room temperature. Soluble IC was then incubated with or without compounds or protein A for 10 min. This mixture was added to RAW 264.7 cells and incubated for 2 h at 37° C. for IC phagocytosis. After incubation, cells were washed twice in cold PBS (5 min, 1200 rpm) and fixed with 500 μL PBS containing 2% formaldehyde. FITC signal taken up by RAW 264.7, which is indicative of IC phagocytosis, was determined by flow cytometry analysis in a Becton Coulter counter with an argon laser and signal was measured through a 530/30 nm filter.

NZBxNZW mice = experiment: SLE-glomerulonephritis in NZBxNZW mice; format: in vivo
Source text: New Zealand mice of the F1 hybrid cross NZBxNZW develop most of the autoimmune abnormalities seen in human SLE and die from SLE-like immune complex (IC)-mediated glomerulonephritis. The mice develop high titers of anti-DNA (double-strand and single-strand) and nuclear extract (NE) antibodies, as well as SLE-related clinical manifestations including leukopenia, thrombocytopenia, proteinuria and glomerulonephritis. These mice develop anti-DNA antibodies after the age of 3 months, with a peak of anti-DNA antibody response occurring at 7 months. Subsequently, the serum concentration of anti-DNA antibodies declines, presumably as a consequence of progressive uremia. The first serological manifestations of the disease occurs at about 150 days (5 months). Their survival is evaluated at approximately 250 days.
FIG. 2 illustrates the effect of compound 1 on the mortality of the NZBxNZW mice. Intravenous administration of compound or vehicle was undertaken once a week from week 18 to week 37. Treatment ceased for 11 weeks and was restarted at week 48 for the control and compound 1 groups. […] It also delays the appearance of symptoms and mortality up to week 45. FIG. 3 illustrates the proteinuria at week 48 to 51.

[3] = weekly intravenous, week 48 to week 52

TNFα / p55 TNFα receptor (CD120a), sequence (P01375 77-233 limits assumed): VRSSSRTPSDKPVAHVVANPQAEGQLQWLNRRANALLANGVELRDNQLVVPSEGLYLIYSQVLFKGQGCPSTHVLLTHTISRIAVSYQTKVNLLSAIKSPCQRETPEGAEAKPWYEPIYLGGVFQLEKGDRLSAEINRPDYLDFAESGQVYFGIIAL

Oc1ccc(CCNc2nc(NCCNc3nc(NCCc4ccc(O)cc4)nc(Nc4ccccc4)n3)nc(Nc3ccccc3)n2)cc1 [Compound 1]
survival of MRL/lpr mice (MRL/lpr mice): 40% | inhibition at 100 µM ([1]; 10^−4 M): 2.7% | inhibition at 10 µM ([1]; 10^−5 M): 0% | reduction of the arthritic index [2]: 20% | inhibition of phagocytosis of IC (RAW 264.7 cells; 10 and 20 μM): approximately 20% | phagocytosis of IC (RAW 264.7 cells; concentrations of 1, 2 and 4 μM): increase | delay of appearance of symptoms and mortality (NZBxNZW mice; intravenous once a week from week 18 to week 37): ≤ 45 week | mortality of NZBxNZW mice (NZBxNZW mice; intravenous once a week from week 18 to week 37, at week 37): reduces the mortality | extended survival (NZBxNZW mice; second SLE study, 65 weeks for control): up to 89 weeks | proteinuria: amount of protein greater than 5 g/liter (NZBxNZW mice; week 48 to 51, after 11 weeks without treatment): greater than the control | protein concentration (5 g/liter) in urine compared to the vehicle (NZBxNZW mice; [3]): decrease | trace amount of protein in urine (improvement in kidney filtration) (NZBxNZW mice; [3]): increase
